Literature values, collected in patent US12702587B2, “Ophthalmic device” (aVISI Ltd., priority 2020, dated 2026).
Structures can show the parent of a compound that is named as a salt.

Details: from chitosan nanoparticles; phosphate buffer saline of pH 7.4; in vitro

- release of timolol maleate (duration of slow release): up to 24 hours
Structure (SMILES): CC(C)(C)NC[C@H](O)COc1nsnc1N1CCOCC1 [timolol maleate]
